Test results: ChEMBL document CHEMBL1134270, “Optimization of 4-phenylamino-3-quinolinecarbonitriles as potent inhibitors of Src kinase activity” (J Med Chem, 2001)

Assays:
[1] = species on record: Rattus norvegicus; assay: Ability to inhibit the proliferation of c-Src transformed rat fibroblasts growing in suspension; type: functional
[2] = biological target: Proto-oncogene tyrosine-protein kinase Src (Homo sapiens, UniProt P12931); assay: Inhibition against Src kinase
[3] = plasma concentration of compound at four hour after the of intraperitoneal administration of 50 mg/kg; type: ADME, organism-based; parameters: dose 50 mg/kg, route intraperitoneal; conditions: ip
[4] = plasma concentration of compound at one hour after the of intraperitoneal administration of 50 mg/kg; type: ADME, organism-based; parameters: dose 50 mg/kg, route intraperitoneal; conditions: ip
[5] = biological target: Platelet-derived growth factor receptor (PDGFr) (Rattus norvegicus, UniProt P20786+Q05030); assay: Inhibition of PDGF receptor transfected rat1A cell proliferation; type: functional
[6] = tested on: HT-29; assay: Inhibition of HT-29 cell monolayer proliferation at 5 uM; type: functional, cell-based; conditions: Homo sapiens
[7] = plasma concentration of compound at four hours after the of intraperitoneal administration of 50 mg/kg; type: ADME, organism-based; parameters: dose 50 mg/kg, route intraperitoneal; conditions: ip

Sequence of Proto-oncogene tyrosine-protein kinase Src (P12931 2-536 limits assumed): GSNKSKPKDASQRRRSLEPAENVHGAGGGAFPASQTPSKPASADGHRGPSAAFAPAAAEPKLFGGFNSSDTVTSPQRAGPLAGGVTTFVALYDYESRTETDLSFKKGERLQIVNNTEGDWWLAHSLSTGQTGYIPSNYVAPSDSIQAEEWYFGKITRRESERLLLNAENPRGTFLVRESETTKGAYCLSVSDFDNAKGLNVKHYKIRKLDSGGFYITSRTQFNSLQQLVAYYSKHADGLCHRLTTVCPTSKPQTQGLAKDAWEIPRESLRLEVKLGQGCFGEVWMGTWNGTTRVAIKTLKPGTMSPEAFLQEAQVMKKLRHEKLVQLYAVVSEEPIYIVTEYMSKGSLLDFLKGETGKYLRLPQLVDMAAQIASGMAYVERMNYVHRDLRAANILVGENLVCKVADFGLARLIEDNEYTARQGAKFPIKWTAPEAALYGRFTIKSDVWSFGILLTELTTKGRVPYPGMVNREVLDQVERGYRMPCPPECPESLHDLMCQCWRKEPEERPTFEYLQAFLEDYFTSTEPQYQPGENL

| SMILES | IC50 [1] [nM] | IC50 [2] [nM] | further results |
| --- | --- | --- | --- |
| COc1cc(Nc2c(C#N)cnc3cc(OCCCN4CCOCC4)c(OC)cc23)c(C)cc1C | 160 | 1.7 |  |
| COc1cc2ncc(C#N)c(Nc3cc(O)c(Cl)cc3Cl)c2cc1OC |  | 190 |  |
| COc1cc(Nc2c(C#N)cnc3cc(OC)c(OC)cc23)c(C)cc1C |  | 4.6 |  |
| COc1cc(Nc2c(C#N)cnc3cc(OC)c(OC)cc23)ccc1Cl |  | 120 |  |
| COc1cc(Nc2c(C#N)cnc3cc(OCCCn4nccn4)c(OC)cc23)c(Cl)cc1Cl | 1900 | 9.3 |  |
| COc1cc(Nc2c(C#N)cnc3cc(OC)c(OC)cc23)c(F)cc1Cl |  | 66 |  |
| COc1cc(Nc2c(C#N)cnc3cc(OC)c(OCCCN4CCOCC4)cc23)c(Cl)cc1Cl | 1200 | 28 |  |
| COc1cc(Nc2c(C#N)cnc3cc(OCCCN4CCNCC4)c(OC)cc23)c(Cl)cc1Cl | 1700 | 1.1 |  |
| COc1cc(Nc2c(C#N)cnc3cc(OCCCn4ccnc4)c(OC)cc23)c(Cl)cc1Cl | 1400 | 2.1 |  |
| CCCN1CCN(CCCOc2cc3ncc(C#N)c(Nc4cc(OC)c(Cl)cc4Cl)c3cc2OC)CC1 | 160 |  |  |
| COc1cc(Nc2c(C#N)cnc3cc(OCCCCCN4CCOCC4)c(OC)cc23)c(Cl)cc1Cl | 320 | 2.5 |  |
| COc1cc(Nc2c(C#N)cnc3cc(OCCCN4CC(C)N(C)C(C)C4)c(OC)cc23)c(Cl)cc1Cl (stereo not drawn) | 220 | 1.4 |  |
| COc1cc(Nc2ccnc3cc(OC)c(OC)cc23)c(Cl)cc1Cl |  | 81 |  |
| COc1cc(Nc2c(C#N)cnc3cc(OCCCn4ccnn4)c(OC)cc23)c(Cl)cc1Cl | 920 | 1.9 | concentration at 4 h [3]: 300 ng/mL; concentration at 1 h [4]: 1300 ng/mL |
| CCOc1cc(Nc2c(C#N)cnc3cc(OC)c(OC)cc23)c(Cl)cc1C |  | > 5000 |  |
| COc1cc(Nc2c(C#N)cnc3cc(OCCCN4CCN(C)CC4)c(OC)cc23)c(Cl)cc1Cl [BOSUTINIB] | 100 |  | concentration at 4 h [3]: 900 ng/mL; concentration at 1 h [4]: 3000 ng/mL; IC50 [5]: 4000 nM; IC50 [6]: 5000 nM |
| CCOc1cc(Nc2c(C#N)cnc3cc(OC)c(OC)cc23)c(Cl)cc1Cl |  | 1200 |  |
| COc1cc(Nc2c(C#N)cnc3cc(OC)c(OC)cc23)c(Br)cc1Cl |  | 3 |  |
| COc1cc2c(Nc3ccc(Cl)cc3Cl)c(C#N)cnc2cc1OCCCN1CCOCC1 | 940 |  |  |
| COc1cc(Nc2c(C#N)cnc3cc(OC)c(OC)cc23)c(Cl)cc1C |  | 2.9 |  |

| SMILES | IC50 [1] [nM] | IC50 [2] [nM] | further results |
| --- | --- | --- | --- |
| COc1cc(Nc2c(C#N)cnc3cc(OC)c(OC)cc23)c(Cl)cc1Cl |  | 4.3 |  |
| COc1cc(Nc2c(C#N)cnc3cc(OCCCN(C)CCN(C)C)c(OC)cc23)c(Cl)cc1Cl | 650 | 2.3 |  |
| COc1cc(Nc2c(C#N)cnc3cc(OCCN4CCOCC4)c(OC)cc23)c(Cl)cc1Cl | 190 | 2.3 |  |
| COc1cc(Nc2c(C#N)cnc3cc(OCCCN4CCOCC4)c(OC)cc23)c(Cl)cc1Cl | 140 | 0.8 | concentration at 1 h [4]: 100 ng/mL; concentration at 4 h [7]: 100 ng/mL |
| COc1cc(Nc2c(C#N)cnc3cc(OCCCN4CCOCC4)c(OC)cc23)c(Br)cc1Cl | 71 | 0.95 |  |
| COc1cc(Nc2ncnc3cc(OC)c(OC)cc23)c(Cl)cc1Cl |  | 390 |  |
| COc1ccc(Cl)c(Nc2c(C#N)cnc3cc(OC)c(OC)cc23)c1 |  | 10 |  |
| COc1cc(Nc2c(C#N)cnc3cc(OCCCN4CCCCC4)c(OC)cc23)c(Cl)cc1Cl | 150 | 1.2 |  |
| CCN1CCN(CCCOc2cc3ncc(C#N)c(Nc4cc(OC)c(Cl)cc4Cl)c3cc2OC)CC1 | 130 |  |  |
| COc1cc(Nc2c(C#N)cnc3cc(OCCCN4CCCN(C)CC4)c(OC)cc23)c(Cl)cc1Cl | 350 | 1.4 |  |
| COc1ccc(Cl)c(Nc2c(C#N)cnc3cc(OCCCN4CCOCC4)c(OC)cc23)c1 | 150 | 1.6 |  |
| COc1cc(Nc2c(C#N)cnc3cc(OCCCCN4CCOCC4)c(OC)cc23)c(Cl)cc1Cl | 330 | 1.3 |  |
| CCCOc1cc(Nc2c(C#N)cnc3cc(OC)c(OC)cc23)c(Cl)cc1Cl |  | > 5000 |  |
| COc1cc(Nc2c(C#N)cnc3cc(OCCCNCCN4CCOCC4)c(OC)cc23)c(Cl)cc1Cl | 1200 | 3 |  |
| COc1cc(Nc2c(C#N)cnc3cc(OC)c(OC)cc23)c(C)cc1Cl |  | 4 |  |
| COc1cc(Nc2c(C#N)cnc3cc(OCCCN4CCOCC4)c(OC)cc23)c(Cl)cc1C | 100 | 1.1 |  |
| COc1cc(Nc2c(C#N)cnc3cc(OCCCN4CCC(O)CC4)c(OC)cc23)c(Cl)cc1Cl | 840 | 0.64 |  |
| COc1cc(Nc2c(C#N)cnc3cc(OCCCN4CCN(CCO)CC4)c(OC)cc23)c(Cl)cc1Cl | 610 | 0.76 |  |
| COc1cc(Nc2c(C#N)cnc3cc(OCCCN4CCOCC4)c(OC)cc23)c(C)cc1Cl | 150 | 1.2 |  |
